The values that follow come from patent US11129807B2, “Methods of treating schizophrenia” (Sunovion Pharmaceuticals Inc., priority 2017, dated 2021).

The subject of this experiment is patients with an acute exacerbation of schizophrenia (PANSS symptom factors). Description: Pooled 6-week placebo-controlled lurasidone studies in acute schizophrenia (PANSS Analysis Study): effect sizes on Marder and transformed PANSS factors. The format is in vivo, human. Conditions: FIG. 3B, given as r=. As to the method:
Profile of active drug effects on schizophrenia symptom domains. In the left panel of FIG. 3B, shown are lurasidone vs placebo effect sizes (with 95% CI) for change from baseline at week 6 endpoint, based on the Marder PANSS factors. In the right panel of FIG. 3B, the same lurasidone vs placebo effect sizes at endpoint are shown based on the transformed PANSS factors. Drug effects were constructed using a pool of all lurasidone doses (40, 80, 120, or 160 mg/day, total N=993) and excluded active comparators (olanzapine, quetiapine-XR). To examine placebo effects on PANSS factors, placebo treated patients (N=484) were pooled across all studies. Transformed PANSS factors were calculated using the coefficients of the score matrix (see FIG. 4 and Table 4A).
The analysis sample consisted of PANSS data derived from 5 similarly-designed, randomized, double-blind, placebo-controlled, 6-week treatment studies of lurasidone or active comparator for the treatment of patients with an acute exacerbation of schizophrenia. Patients (N=1,710) were included in this analysis if they had received at least one dose of study drug, and had at least one post-baseline PANSS assessment. The analysis pooled all lurasidone doses (40, 80, 120, or 160 mg/d, total N=993), and excluded active comparators (olanzapine, quetiapine-XR). To examine placebo effects on PANSS factors, placebo treated patients (N=484) were pooled across all studies. Herein also referred to as the “PANSS Analysis Study.”
The Uncorrelated PANSS Score Matrix (UPSM) of FIG. 4 and Table 4A was derived using PROC FACTOR procedure of SAS 9.4 with maximum likelihood method (maximum likelihood factor analysis), rotated using the varimax algorithm and compensated for communality greater than 1 using Heywood criteria without a limit on the number of factors produced. A last observation carried forward (LOCF) data imputation method was applied for missing post-baseline PANSS assessments.
The ratings of 30 items in the PANSS data of the PANSS Analysis Study were transformed to transformed PANSS factor scores using a score matrix identified by the maximum likelihood method factor analysis conducted on all change from baseline PANSS data from the 5 short-term clinical trials in the pooled analysis sample. The score matrix, also referred to here as the UPSM, consisted of coefficients multiplying the numerical ratings of each PANSS item differentially for each of the factor scores.
The change-from-baseline PANSS data for all patients and all observations N was a matrix of dimensions (N observations×30 items). To increase precision, the score matrix coefficients were determined using all change-from-baseline observations at Weeks 1-6. The resultant score matrix (30 items×7 factors), or UPSM, was used to transform individual PANSS item change scores (without standardization) to reduce the dimensionality into 7-factor values for each PANSS assessment. FIG. 4 and Table 4A summarize the score matrix (UPSM) weights for individual PANSS items used to generate the transformed PANSS factors.
The weighted score matrix transformation was performed on each of the PANSS item baseline-to-endpoint change scores. This transformation yielded 5 transformed PANSS factors that corresponded to the Marder PANSS factors, with two of the factors (negative symptoms and depression/anxiety) further subdivided into sub-factors (corresponding to the symptom sub-domains of: apathy/avolition and deficit of expression; and depression and anxiety, respectively).
The Validation Study data transformed PANSS factors of Example 1 were used to compare treatment effects of an antipsychotic (lurasidone) on established schizophrenia symptom domains with those estimated using Marder PANSS factors.

For the compound `O=C1[C@@H]2[C@H]3CC[C@H](C3)[C@@H]2C(=O)N1C[C@@H]1CCCC[C@H]1CN1CCN(c2nsc3ccccc23)CC1` [lurasidone], the “effect size, Marder PANSS disorganized factor change score” value was determined as 0.48; the “effect size, Marder PANSS factor change score compared with transformed anxiety factor” value stood at 0.38; the “effect size, Marder PANSS factor change score compared with transformed depression factor” value is reported as 0.38; the “effect size, Marder PANSS hostility factor change score” value is given as 0.43. Further, the “effect size, Marder PANSS positive factor change score” value came to 0.59; the “effect size, transformed PANSS anxiety factor change score” value is listed as 0.24; the “effect size, transformed PANSS depression factor change score” value is listed as 0.16; the “effect size, transformed PANSS disorganized factor change score” value was 0.23. Also, the “effect size, transformed PANSS hostility factor change score” value is 0.31 and the “effect size, transformed PANSS positive factor change score” value is given as 0.45. For the same compound, where the note is “change score”, the “effect size, Marder negative symptom factor” value is recorded as 0.35; the “effect size, transformed PANSS negative symptoms deficit of expression” value is listed as 0.04; the “effect size, transformed PANSS negative symptoms of apathy/avolition” value is reported as 0.22.
